Test results as given in a melting point compilation (Tetko et al.; mined from patent text by program, amines drawn as free bases though some values may be those of a salt).

Row | Compound | melting point [°C]
1 | C#Cc1cc(=O)n2nc(S(=O)(=O)Cc3ccccc3)sc2n1 | 101 to 106
2 | COc1nccnc1OCC(O)CN1CCC(N2CCc3ccccc3C2=O)CC1 (configuration not stated) | 167 to 169
3 | O=C(OCCCCCCc1ccc(OCc2ccc(Cl)cc2)cc1)c1cccnc1 | 66 to 67
4 | Cc1ccc(C(N)=O)c(C)c1 | 184 to 186
5 | C#CCc1c(C)nc2c(OCc3ccccc3)cccn12 | 112
6 | COc1ccccc1[C@H](c1cccc2ccccc12)[C@@](C)(C#N)C(=O)N1CCC(C2CCCC(C(F)(F)F)C2)CC1 (some centres not stated) | 160 to 165
7 | COc1cc(CC(C)=O)ccc1OCCCN1CCC(c2noc3cc(F)ccc23)CC1 | 118 to 119
8 | Cc1nc(Cn2nc(-c3c(-c4ccccc4)nn4ccccc34)ccc2=O)cs1 | 196 to 198
9 | CN1C(=O)C(NC(=O)CCCCc2ccccc2)N=C(N2CCCCCC2)c2ccccc21 (configuration not stated) | 140 to 141
10 | COC(=O)C(NC(=O)C(NC(C)=O)(OC)C(Br)Br)=C(C)C (configuration not stated) | 150 to 151
11 | CCCCCc1cc(O)c2c(c1)OC(C)(C)[C@H]1CC=C(C(=O)NCC(O)CNC(=O)c3ccc4c(c3)C(=O)OC43c4ccc(O)cc4Oc4cc(O)ccc43)C[C@H]21 (some centres not stated) | > 330
12 | O=C(O)C1c2ccccc2COc2ccc(F)cc21 (configuration not stated) | 176
13 | CSc1cccc(-n2cnc(C(=O)O)c2)c1 | 190 to 192
14 | Nc1cc(OCC(O)CO)nc(N)n1 (configuration not stated) | 160
15 | COc1ccc2c(c1)C(N(CC(=O)O)C(=O)C(C)CSC(C)=O)CC2 (configuration not stated) | 106 to 110
16 | COc1ccc2c(c1)Oc1c(cccc1OCc1ccccc1)C2 | 107 to 108
17 | NC(=O)c1c(Cl)cc(Cl)c(CC(=O)O)c1Cl | 211
18 | O=C(Nc1ccc(S(=O)(=O)N2CCOCC2)cc1)c1cc(N2CCOCC2)ccc1[N+](=O)[O-] | 252
19 | CCCCc1nc(C(C)(O)CC)c(C(=O)O)n1Cc1ccc(-c2ccccc2-c2nnn[nH]2)cc1 (configuration not stated) | 152 to 154
20 | CN(C)CC/C=C1/c2cc(Br)ccc2COc2ccccc21 | 91 to 100
21 | COC(CN(C)C(=O)Nc1nnc(C(C)Oc2cccc(Cl)c2)s1)OC (configuration not stated) | 127 to 130
22 | CC(=O)NC[C@H]1CN(c2ccc(N3CCC(O)(C[N+](=O)[O-])CC3)c(F)c2)C(=O)O1 | 186 to 187
23 | CN1CC=C(c2c[nH]c3ccc(C[C@H]4COC(=O)N4)cc23)CC1 | 225 to 227
24 | COC(=O)c1cc2cc(OC)c(OC)cc2c(-c2ccncc2)c1C(=O)OC | 196 to 198
25 | COC(=O)c1ccc(C(OC(C)=O)OC(C)=O)cc1 | 64 to 67

Row | Compound | melting point [°C]
26 | N#CC(=C(Nc1cc(C(F)(F)F)cc(C(F)(F)F)c1)NC1CCC1)S(=O)(=O)c1ccc(Cl)cc1 | 190 to 193
27 | O=C1CCCc2cc(OCCOc3ccccc3)ccc21 | 109 to 113
28 | CC(C)(C)c1ccc(C(O)CCCCC2CCCCC2)cc1C(C(N)=O)C1c2ccccc2Oc2ccccc21 (configuration not stated) | 121 to 122
29 | CC(=O)c1ccc(OCCCCN2C(=O)c3ccccc3C2=O)cc1 | 112 to 114
30 | Cc1ccc(-c2cc(F)c(F)cc2-c2ccc(S(N)(=O)=O)cc2)cc1 | 103 to 104
31 | CC(C)c1nc(C(N)=O)c2n1-c1ccc(Cl)cc1C(c1ccccc1Cl)=NC2 | 328 to 330
32 | CN(Cc1ccc(NC(=O)C2=Cc3cc(-c4ccc5c(c4)CCC(C)(C)O5)ccc3S(=O)(=O)CC2)cc1)C1CCOCC1 | 222 to 226
33 | CCC(=CC(CNC(=O)Cc1cccnc1)=NO)C(C)[N+](=O)[O-] (configuration not stated) | 123 to 125
34 | O=c1ccc(-c2ccccc2Cl)n[nH]1 | 214 to 216
35 | CN1CCc2c(Cl)ccc(CO)c2CC1 | 136 to 140
36 | CNc1nc(C)c(-c2ccnc(Nc3ccc(N4CCN(C(C)=O)CC4)cc3)n2)s1 | 213 to 214
37 | O=C(NCc1ccnc(Cl)c1)c1[nH]c2ccc(Cl)cc2c1S(=O)(=O)c1ccccc1 | 263 to 265
38 | CC(C)(C(=O)O)c1ccc(OCCNC(=O)C2Cc3ccccc3N2S(=O)(=O)c2ccc(-c3cc(C(F)(F)F)ccc3Cl)cc2)cc1 (configuration not stated) | 92 to 100
39 | CC(=O)c1cnc(N)c(Cl)c1 | 188
40 | CCCCn1cc(C(=O)O)c(=O)c2cc(C)sc21 | 172 to 173
41 | CCOCCOc1ccc(CCNC(=O)/C=C/c2cccs2)cc1S(N)(=O)=O | 52
42 | COC(=O)c1ccc(OCc2ccccc2)c(C(C)=O)c1 | 68 to 72
43 | CC(C)(C)OC(=O)NCCNC(=O)c1nc(Cl)sc1-c1ccccc1 | 114 to 116
44 | CC1CCCN(C[C@@H]2COc3ccc(S(C)(=O)=O)cc3O2)C1 (some centres not stated) | 159
45 | O=C(CCn1cnc2c(=O)[nH]cnc21)Nc1ccc(C(=O)O)cc1 | 319 to 321
46 | C=CCCc1ccc(C=NN=Cc2ccc(C)cc2)cc1 | 82
47 | Nc1c(N(CC(=O)O)Cc2ccccc2)c(=O)c1=O | 177 to 179
48 | CCCCOc1nc(N)c2[nH]c(=O)n(CCCN(CCCN3CCOCC3)Cc3cccc(CC(=O)OC)c3)c2n1 | 153
49 | CC(=O)OC1CSC(Oc2ccc(C(=O)NCc3ccccc3)nc2)C(OC(C)=O)C1OC(C)=O (configuration not stated) | 177 to 178
50 | COc1cccc(OC)c1C(N)=O | 208 to 209

Row | Compound | melting point [°C]
51 | CC(=O)OCC1OC(n2cc(Cc3ccc4occc4c3)c3c(Cl)cccc32)C(OC(C)=O)C(OC(C)=O)C1OC(C)=O (configuration not stated) | 186 to 188
52 | CCOC(=O)C1=CC(C(=O)c2cc(Br)ccc2O)=CN2CCc3c([nH]c4ccc(OC)cc34)C12C(=O)OCC (configuration not stated) | 225
53 | CN(C)C(=O)/C=C/c1cnc2c(NC(=O)c3c(Cl)cccc3Cl)cccc2c1 | 241 to 242
54 | COc1ccccc1Sc1c(NS(=O)(=O)c2ccc(C(C)(C)C)cc2)ncnc1OCCOC(=O)Nc1ccccn1 | 193
55 | CC[C@@H](Nc1nc(NCc2cccnc2)c2ncn(C(C)C)c2n1)C(C)(C)O | 138 to 145
56 | CC(=O)NC[C@H]1CN(c2cc(F)c(N3CCSCC3)c(F)c2)C(=O)O1 | 187 to 188
57 | O=C(CC1COC1)N[C@H]1CC[C@H](CCN2CCC(c3cccc4c3CCO4)CC2)CC1 | 197
58 | CCCCCCCCOc1cc(OC)ccc1C=O | 37 to 39
59 | CC(C)(C)c1ccc2c(c1)C=C(C(=O)O)CC2 | 185 to 186
60 | C=CCc1cc(C(C)=O)c(O)cc1OCCCCCC(N)=O | 122 to 124
61 | NC(=S)NN=C(CCCOC(=O)NCc1ccccc1)c1ccccc1 | 137 to 140
62 | COc1cc(NC(=N)Nc2ccc3c4c(cccc24)CC3)cc2ccccc12 | 191 to 192
63 | O=C(Nc1ccnc(Br)c1)C1(O)CCCCC1 | 179
64 | O=S(=O)(c1ccccc1)c1c[nH]c2cccc(Br)c12 | 202 to 207
65 | O=C1CCC(C(=O)OCc2ccc(Cl)cc2)N1 (configuration not stated) | 119 to 120
66 | COc1ccc(CN2C(=O)[C@@H](N3C(=O)c4ccccc4C3=O)[C@H]2/C=C/c2ccccc2)c(OC)c1 (relative stereo) | 173 to 177
67 | CS(=O)(=O)Nc1cc(C(c2cc(F)ccc2F)S(=O)(=O)c2ccc(F)c(F)c2)c(Cl)cn1 (configuration not stated) | 118 to 120
68 | CCc1ccc(OCc2ccc(CO)c(CO)c2)cc1-c1ccc(C(O)(CC)CC)cc1C(C)C | 109
69 | O=C(c1ccccc1)c1cc(Oc2cc(Cl)cc(Cl)c2)c2c(=O)c3ccccc3sc2c1 | 160 to 163
70 | COc1c(OCC(F)(F)F)ccnc1CO | 107 to 108
71 | COC(=O)C[C@H]1C[C@H](C=Cc2c(-c3ccc(F)cc3)c(-c3ccc(F)cc3)c(C(=O)OCc3ccccc3)n2C(C)C)OC(C)(C)O1 | 125 to 127
72 | O=C1CCOc2cc(OCc3ccccc3)c(F)cc21 | 155 to 156
73 | O=[N+]([O-])c1ccc(C2CCc3c(CCCCCCO)n[nH]c3C2)cc1 (configuration not stated) | 69 to 70
74 | COc1ccc(C2CSc3ccccc3NC2=O)cc1Br (configuration not stated) | 200
75 | CN1CC(c2cc(CCc3ccccc3)cnn2)=C(O)C1=O | 203 to 205

Row | Compound | melting point [°C]
76 | CNC(=O)c1cc(Oc2ccc3c(C(=O)Nc4cccc(C(F)(F)F)c4)cccc3c2)ccn1 | 175 to 177
77 | O=C1CCC(c2ccccc2)(c2ccccc2)C2CN(C(Cc3ccccc3)=NCc3ccccc3Cl)CC12 (configuration not stated) | 192
78 | CCCCCC/C=C/CCCCCCCCCC(=O)Nc1nc(CC(=O)O)cs1 | 116 to 117
79 | N=C(OCc1ccc(Cl)cc1)N1Cc2ccccc2-c2ccccc2C1 | 103 to 105
80 | CCOC(=O)C(Cc1ccc(C(=O)C(C)(C)C)cc1)Cc1ccc(C(=O)C(C)(C)C)cc1 | 60 to 63
81 | CCOC(=O)C(=O)Nc1c(C)c(C)c2c(c1C)C(c1ccc(C(C)C)cc1)CO2 (configuration not stated) | 83 to 84
82 | CN1CCC(C2(O)c3ccccc3Sc3ccc(S(=O)(=O)C(F)(F)F)cc32)CC1 (configuration not stated) | 211 to 216
83 | Cc1nc(-c2ccc(OCc3ccncc3)cc2)no1 | 132 to 133
84 | O=c1ccc2ccc(CBr)cc2o1 | 172 to 176
85 | OCc1cccnc1Nc1ccccc1 | 180 to 182
86 | CC(C)N(O)C(=O)c1c([Si](C)(C)C)sc2ccccc12 | 115 to 118
87 | CCCNc1ncnc2c1ncn2CCCN1CCN(c2ccccc2)CC1 | 67 to 68
88 | COc1cc(OC)cc(C2(O)C(=O)Nc3ccc(Cl)cc32)c1 (configuration not stated) | 191
89 | O=C(O)c1nc2c(=O)[nH]c3cc(C(F)(F)F)ccc3n2c1CNCc1ccccc1 | 248
90 | CC(C)(C)NC(=O)N1CCn2c(c(C(N)=O)c(Br)c2C2CC2)C1 | 204 to 208
91 | CC(CO)(CO)C(=O)OCc1ccccc1 | 71.6 to 72.8
92 | Cc1cc(C)c(C2C(=O)C(Cc3ccc(Cl)cc3)N(C)C2=O)c(C)c1 (configuration not stated) | > 230
93 | CCOC(=O)c1cnc(CC)nc1NCc1ccc(-c2ccccc2-c2nnn[nH]2)cc1 | 114 to 116
94 | CCCCCCc1sc(C(N)=O)c2c1-c1c(cnn1C)CC2 | 100 to 101
95 | COc1cccc2c(NCc3ccccc3)nc(N)nc12 | 243 to 245
96 | CCOC(=O)C=Cc1ccc2c(c1)CC(NC(=O)OC(C)(C)C)CC2 (configuration not stated) | 99 to 100
97 | CCC(=O)NCCc1cc(-c2cccc(C(=O)OC)c2)cc2ccc(OC)cc12 | 113 to 115
